Source: patent US20240025946A1, “Cyclic Tetrapeptides and Metal Complexes Thereof” (priority 2020, published 2024)
Values joined by “and” are separate entries in the source; they are usually repeats but may differ in a detail not shown here. Equal entries are not always repeated.

Tests used:
[1] = test system: HT-29 cells; assay: In vitro toxicity test, crystal violet; type: cell-based, human; settings: HT-29, 24 h; for IC50: concentration at 50% viability, mean (SD), n.d. = not detected as it is too high
Protocol: 96-well plates were prepared such that every well contains 10,000 cells in 100 μL medium, and the cells were allowed to adhere overnight.
To all wells but the positive control, 10 μL of each solution of the examined CA (2.4, 6, 12, 24, 48, and 120 mM) were added to reach final concentrations of 0.2, 0.5, 1, 2, 4, and 10 mM. To the positive control wells, 10 μL of H2O was added. Each condition was performed in triplicates. The plates were incubated at 37° C. and 5% CO2 for 24 h, after which the medium was removed, washed with fresh medium and 50 μL of crystal violet solution (0.5% crystal violet powder in 20 mL MeOH and 80 mL H2O) to each well and the plates were gently shaken (60 rpm) for 20 min. The plates were then washed with H2O until no more unbound dye was observed and allowed to dry overnight. 200 μL of MeOH were added to each well, and the plates were gently shaken (60 rpm) for 20 min, after which their absorbance at 560 nm was read with a plate reader. The toxicity of each concentration of CA was calculated according to equation 3:
(§1) A[CAx]—absorbance of the pre-toxified well in the presence of X mM of CA
(§2) A[blank]—absorbance of blank wells (contain nothing)
A[POS]—absorbance of well that contains no CA
(§3) Each experiment was performed on three independent occasions. Values are mean±SD of >3 repeats each performed in triplicate.

[2] = test system: male mice (C57BL/6); assay: Pb-poisoned mice: blood lead level and urinary Pb by ICP-MS; type: in vivo; settings: 30 mg kg^−1 day^−1, days 10-16; for BLL: blood on day 18, eight mice; for Urinary Pb (ppm): urine on day 18
Protocol: Peptide 8a was then tested in mice. 40 male mice (C57BL/6) aged 6-8 weeks were provided with 20 mM Pb(OAc)2 solution as the sole water supply for seven days (days 1-7). This poisoning route mimics chronic exposure in humans. Two days after returning to clean water (day 9), they were randomly divided into five groups of eight mice. They received a single treatment per day for seven days (days 10-16) of either CaNa2EDTA, DMSA, or 8a at a concentration of 30 mg kg^−1 except for group 1 that served as the negative control (Table 3).
Blood samples (100 μL) were collected before dosing the mice on days 10-15 and on day 18, which is two days after the last dosing and the day by which the experiment was terminated. Urine was also collected from 34 animals on day 18 and was kept frozen until analysis.

[3] = test system: DH5α E. coli; assay: In vivo recovery test: Pb detoxification of poisoned bacteria, colony counting; type: cell-based; settings: highest concentration 120 mM (10 equiv.); Pb(NO3)2 12 mM; vs poisoned untreated cells; mean
Protocol: (§4) Desalted peptides were then assessed for their ability to detoxify Pb (FIGS. 2a-d). The inventors designed two assays for rapid and reliable screening of potential CAs both in vivo on bacteria and then in vitro on human cell culture. Briefly, DH5a or HT-29 cells were first exposed to Pb(NO3)2 slightly below the minimal inhibitory concentration and then treated with various concentrations of the investigated CA, ranging from 0.1 to 10 equivalents. The viability of the cells was determined by colony counting or by crystal violet (Feoktistova et al, 2016), for the bacteria and the human cells, respectively, and was compared to poisoned cells that were not treated with any CA as the negative control. […] On the other hand, testing the compounds on human cells cannot be performed with insoluble compounds but is more relevant for medicinal purposes.
HRMS (ESI) m/z calculated for C16H26N4O4SNa^+ [M+Na]^+ 427.14442; found: 427.14447 In vivo recovery tests A single colony of DH5a E. coli WT cells was grown overnight at 37° C. and 220 rpm in Tris Minimal Medium (TMM, pH 6.0; 5 mL) without antibiotics. The culture was then diluted to an OD600 of 0.03 with additional TMM to a total volume of 5 mL, and its OD600 was monitored. Upon cell density of 0.25 (which was achieved after 3-5 h), 1 mL of the culture was transferred into a cell culture tube and was labeled as the positive control. To additional 3 mL of the culture, 36 μL of Pb(NO3)2 1 M were added (final concentration of 12 mM). Both cultures were shaken at 37° C. and 220 rpm for an additional 5 h.
Aqueous stock solutions of each CA were plated on freshly prepared agar-LB plates such that the final concentration of each compound is equal to 0.5, 1, 2, 5, and 10 equivalents, compared to the amount of Pb(NO3)2 in 50 μL pre-toxified culture. The stock solutions were prepared such that plating and equally spreading 30 μL of each solution will provide the desired amount of CA. To additional two plates, 30 μL of H2O was added.
50 μL of the pre-toxified culture were homogenously spread to each CA-containing plate, 5 h after adding the metal to the culture. The Pb-containing culture was also plated on one of the two H2O-containing plates and was labeled as the negative control. Lastly, 50 μL of the non-toxified culture were platted on the second H2O-containing plate and was labeled as positive control. All plates (positive and negative control and five plates for each examined compound) were then incubated at 37° C. overnight. The plates were then imaged, and the colonies were counted (with Vilber Quantum Visualization System). The recovery of each concentration of CA was calculated according to equation 1: […]
#CAx—number of colonies of pre-toxified culture in a plate containing X mM of CA
#NEG—number of colonies of pre-toxified culture in a plate containing no CA
as §3

[4] = test system: HT-29 cells; assay: In vitro recovery test: Pb detoxification of poisoned human cells, crystal violet; type: cell-based; settings: highest concentration 10 mM (5 equiv.); Pb(NO3)2 2 mM; vs poisoned untreated cells; mean, SD
Protocol: as §4
96-well plates were prepared such that every well contains 10,000 cells in 100 μL medium, and the cells were allowed to adhere overnight. To all wells but the positive control, 10 μL of 22 mM Pb(NO3)2 were added (final concentration 2 mM). 10 μL of H2O was added to the positive control wells. 60 min after addition of metal, 10 μL of each solution of the examined CA (2.4, 6, 12, 24, 48, and 120 mM) were added to reach final concentrations of 0.2, 0.5, 1, 2, 4, and 10 mM (which are 0.1, 0.25, 0.5, 1, 2, and 5 equivalents, respectively). To the positive control wells containing no metal and the negative control wells containing metal but no CA, 10 μL of H2O were added. Each condition was performed in triplicates. The plates were incubated at 37° C. and 5% CO2 for an additional 23 h, after which the medium was removed, washed with fresh medium and 50 μL of crystal violet solution (0.5% crystal violet powder in 20 mL MeOH and 80 mL H2O) to each well and the plates were gently shaken (60 rpm) for 20 min. The plates were then washed with H2O until no more unbound dye was observed and allowed to dry overnight. 200 μL of MeOH were added to each well, and the plates were gently shaken (60 rpm) for 20 min, after which their absorbance at 560 nm was read with a plate reader. The recovery of each concentration of CA was calculated according to equation 2:
as §1, §2
A[NEG]—absorbance of the pre-toxified well that contains no CA
as §3

O=C(O)C(S)C(S)C(=O)O (stereo not drawn) [DMSA, dimercaptosuccinic acid]
IC50 ([1]; Homo sapiens): 3.7 mM
inhibition at 10000 µM ([1]; Homo sapiens, inhibition at the highest concentration (10 mM), mean, SD, read-out: Toxicity Maximal inhibition (%)): 77%
BLL ([2]; Oral): 23.3 ± 2.3 µg/dL
Urinary Pb (ppm) ([2]; Oral): 340 ± 28 ppm
Recovery DH5α (%) [3]: 165%
Recovery HT-29 (%) [4]: 110±10% and 110%

O=C([O-])CN(CCN(CC(=O)[O-])CC(=O)[O-])CC(=O)[O-].[Ca+2].[Na+].[Na+] [Na2CaEDTA]
IC50 [1]: 3.9 mM
Toxicity Maximal inhibition (%) ([1]; inhibition at the highest concentration (10 mM), mean, SD): 63%
BLL ([2]; IV): 25.7 ± 1.6 µg/dL
Urinary Pb (ppm) ([2]; IV): 210 ± 30 ppm
Recovery DH5α (%) [3]: 182%
Recovery HT-29 (%) [4]: 95±16% and 95%
